Results as given in PMC11279616 (Pharmaceuticals, 2024).
Where no end group is shown, it is not given here.

Columns and labels:
Vero E6 cells [1] = format: cell-based, African green monkey; details: at 50 and at 100 μg, MTS
Experimental: For the MTS assay, VERO E6 cells (2 × 10^4/well) were seeded into 96-well plates in triplicate and cultured in growth medium. Then, different peptide concentrations were added, and the viability was tested every day for three consecutive days using the CellTiter […] Aqueous One Solution Cell Proliferation Assay kit (CTB169; Promega, Fitchburg, WI, USA) following the manufacturers manual. Untreated cells were used for value normalizations.

Vero E6 cells [2] = details: 100 µg

| Sequence | concentration/toxicity ratio (Vero E6 cells [1]) | toxic effect (Vero E6 cells [2]) |
| --- | --- | --- |
| VTNATAPNTDVSVSLSMILQTISASI [pep6] | best concentration/toxicity ratio | – |
| VVNTDSLSSVTNATSIQITAPASMLI [DPP4_270–295] | – | without observing any toxic effect |
